In PMC2194712, “Structure of Arabidopsis thaliana 5-methylthioribose kinase reveals a more occluded active site than its bacterial homolog” (BMC Structural Biology, 2007):

Assays:
[1] = target: T1, A. thaliana MTR kinase (Arabidopsis thaliana, UniProt Q9C6D2); assay: X-ray crystallography, […] Å, co-crystallization; format: binding; details: crystal soaked at pH 6.5
T1 construct: gene MTK; full length, 420 residues; homodimer
T1 sequence (Q9C6D2 1-420): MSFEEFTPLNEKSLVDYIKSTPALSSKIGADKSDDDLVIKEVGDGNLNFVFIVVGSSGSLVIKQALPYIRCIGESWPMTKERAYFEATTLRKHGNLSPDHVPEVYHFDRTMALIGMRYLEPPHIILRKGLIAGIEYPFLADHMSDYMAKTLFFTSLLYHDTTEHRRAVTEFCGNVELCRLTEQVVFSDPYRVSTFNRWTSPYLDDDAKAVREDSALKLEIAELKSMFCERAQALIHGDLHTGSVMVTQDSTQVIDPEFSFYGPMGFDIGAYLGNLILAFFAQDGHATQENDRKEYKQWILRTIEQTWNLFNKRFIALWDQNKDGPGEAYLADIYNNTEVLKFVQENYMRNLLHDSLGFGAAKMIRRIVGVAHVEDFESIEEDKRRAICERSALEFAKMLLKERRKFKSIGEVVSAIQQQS

[2] = target: the molecule itself; assay: SEC; size exclusion chromatography of A. thaliana MTR kinase, data not shown; conditions not given

In the case of `Nc1ncnc2c1ncn2[C@@H]1O[C@H](COP(=O)(O)OP(=O)(O)O)[C@@H](O)[C@H]1O` [ADP], the “X-ray crystallography, 1.9 Å, co-crystallization” value ([1]; nucleotide site, from ATPγS hydrolysed during co-crystallization, two Mg(II), MTR bound) is reported as “coordinates of the A. thaliana MTR kinase in complex with ADP and MTR”.

`CSC[C@H]1OC(O)[C@H](O)[C@@H]1O` (stereo partly drawn) [MTR] was tested, and the “X-ray crystallography, 1.9 Å, co-crystallization” value ([1]; active site, co-crystallized with ATPγS and MTR, Mg(II) and ADP bound, alpha anomer) was “coordinates of the A. thaliana MTR kinase in complex with ADP and MTR”.

B1: Arabidopsis thaliana 5-methylthioribose kinase (enzyme, UniProt Q9C6D2 1-420, looked up)
chain: MSFEEFTPLNEKSLVDYIKSTPALSSKIGADKSDDDLVIKEVGDGNLNFVFIVVGSSGSLVIKQALPYIRCIGESWPMTKERAYFEATTLRKHGNLSPDHVPEVYHFDRTMALIGMRYLEPPHIILRKGLIAGIEYPFLADHMSDYMAKTLFFTSLLYHDTTEHRRAVTEFCGNVELCRLTEQVVFSDPYRVSTFNRWTSPYLDDDAKAVREDSALKLEIAELKSMFCERAQALIHGDLHTGSVMVTQDSTQVIDPEFSFYGPMGFDIGAYLGNLILAFFAQDGHATQENDRKEYKQWILRTIEQTWNLFNKRFIALWDQNKDGPGEAYLADIYNNTEVLKFVQENYMRNLLHDSLGFGAAKMIRRIVGVAHVEDFESIEEDKRRAICERSALEFAKMLLKERRKFKSIGEVVSAIQQQS
notes: 5-methylthioribose (MTR) kinase of Arabidopsis thaliana, 420 residues; residues 1 and 420 are named as part of the crystallised protein (not modelled); also called A. thaliana MTR kinase; MTR kinase
In the case of B1, the “stoichiometry N” value [2] is reported as 2.
